Reference: US20060014712A1, “Controlled delivery of therapeutic compounds” (CeMines, Inc., priority 2004, published 2006)

Experiments:
WM 266-4 [1] = experiment: Cell counting after 7 day peptide treatment; type: cell-based, human; details: conc 10 µM, start count 10
Protocol: The ability to block interaction of MITF, SOX10 and STAT3 with active transcriptional complex and inhibit proliferation and stimulate apoptosis of melanoma cells were tested on human melanoma cell lines SK-MEL-28 and WM 266-4, and mouse melanoma cell line B16. Methods. Human melanoma cell lines SK-MEL-28 and WM 2664 and mouse melanoma cell line B16 were obtained from the American Tissue Culture Collection (ATCC). Cells were cultured according to recommendations of ATCC (DMEM, 10% FCS, penicillin+streptomycin) and used in experiments after two passages in the laboratory. Cells were grown in 24 well plates, each treatment in triplicates. Cells were plated 16 hours prior treatments started. Peptides were added to the media, and media was changed every day during 7 day experiment. […] Cells were precipitated and resuspended in 100 μl of PBS, and 5 μl were removed for counting Methods. Human melanoma cell lines SK-MEL-28 and WM 266-4 were obtained from the American Tissue Culture Collection (ATCC) and were cultured according to recommendations of ATCC (DMEM, 10% FCS, penicillin+streptomycin). Human keratinocytes were obtained from Clonetics and cultured according to manufacturers protocol. Cells were used in experiments after two passages in the laboratory. Cells were grown in 24 well plates, each treatment in triplicates. Cells were plated 16 hours prior treatments started. Peptides were added to the media, and media was changed every day during 7 day experiment. […] For cell counting, cells were trypsinized (0.25% Trypsin, 2 mM EDTA) in Ca, Mg free PBS. Cells were precipitated and resuspended in 100 μl of PBS, and 5 μl were removed for counting.

WM 266-4 [2] = experiment: Apoptosis, Annexin V-Cy3 Apoptosis Kit; type: cell-based, human; details: conc 10 µM
Protocol: (§1) Methods. Human melanoma cell lines SK-MEL-28 and WM 2664 and mouse melanoma cell line B16 were obtained from the American Tissue Culture Collection (ATCC). Cells were cultured according to recommendations of ATCC (DMEM, 10% FCS, penicillin+streptomycin) and used in experiments after two passages in the laboratory. Cells were grown in 24 well plates, each treatment in triplicates. Cells were plated 16 hours prior treatments started. Peptides were added to the media, and media was changed every day during 7 day experiment. […] Methods. Human melanoma cell lines SK-MEL-28 and WM 266-4 were obtained from the American Tissue Culture Collection (ATCC) and were cultured according to recommendations of ATCC (DMEM, 10% FCS, penicillin+streptomycin). Human keratinocytes were obtained from Clonetics and cultured according to manufacturers protocol. Cells were used in experiments after two passages in the laboratory. Cells were grown in 24 well plates, each treatment in triplicates. Cells were plated 16 hours prior treatments started. Peptides were added to the media, and media was changed every day during 7 day experiment. […] Apoptosis was analyzed using Biovision Annexin V-Cy3 Apoptosis Kit according to manufacturers protocols.

SK-MEL-28 [3] = experiment: WST-1 test (mitochondrial activity); type: cell-based, human; details: conc 10 µM, untreated = 1
B16 = experiment: Apoptosis, Annexin V-Cy3 Apoptosis Kit; type: cell-based, mouse; details: CPP mimicking peptides, conc 10 µM
Protocol: Methods. Human melanoma cell lines SK-MEL-28 and WM 2664 and mouse melanoma cell line B16 were obtained from the American Tissue Culture Collection (ATCC). Cells were cultured according to recommendations of ATCC (DMEM, 10% FCS, penicillin+streptomycin) and used in experiments after two passages in the laboratory. Cells were grown in 24 well plates, each treatment in triplicates. Cells were plated 16 hours prior treatments started. Peptides were added to the media, and media was changed every day during 7 day experiment. CPP concentration was 10 μM Apoptosis was analyzed using Biovision Annexin V-Cy3 Apoptosis Kit according to manufacturers protocols.

WM 266-4 [4] = experiment: WST-1 test (mitochondrial activity); type: cell-based, human; details: conc 10 µM, untreated = 1
Protocol: as §1, with “WST-1 test” for “Apoptosis”, “performed” for “analyzed using Biovision Annexin V-Cy3 Apoptosis Kit according”, “measure mitochondrial activity, which can also be used as a measure of cell number.” for “manufacturers protocols.”

SK-MEL-28 [5] = experiment: Cell counting after 7 day peptide treatment; type: cell-based, human; details: conc 10 µM, start count 10
Protocol: The ability to block interaction of MITF, SOX10 and STAT3 with active transcriptional complex and inhibit proliferation and stimulate apoptosis of melanoma cells were tested on human melanoma cell lines SK-MEL-28 and WM 266-4, and mouse melanoma cell line B16. Methods. Human melanoma cell lines SK-MEL-28 and WM 2664 and mouse melanoma cell line B16 were obtained from the American Tissue Culture Collection (ATCC). Cells were cultured according to recommendations of ATCC (DMEM, 10% FCS, penicillin+streptomycin) and used in experiments after two passages in the laboratory. Cells were grown in 24 well plates, each treatment in triplicates. Cells were plated 16 hours prior treatments started. Peptides were added to the media, and media was changed every day during 7 day experiment. CPP concentration was 10 μM For cell counting, cells were trypsinized (0.25% Trypsin, 2 mM EDTA) in Ca^+2, Mg^+2 free PBS. Cells were precipitated and resuspended in 100 μl of PBS, and 5 μl were removed for counting Methods. Human melanoma cell lines SK-MEL-28 and WM 266-4 were obtained from the American Tissue Culture Collection (ATCC) and were cultured according to recommendations of ATCC (DMEM, 10% FCS, penicillin+streptomycin). Human keratinocytes were obtained from Clonetics and cultured according to manufacturers protocol. Cells were used in experiments after two passages in the laboratory. Cells were grown in 24 well plates, each treatment in triplicates. Cells were plated 16 hours prior treatments started. Peptides were added to the media, and media was changed every day during 7 day experiment. CPP concentration was 10 μM. For cell counting, cells were trypsinized (0.25% Trypsin, 2 mM EDTA) in Ca, Mg free PBS. Cells were precipitated and resuspended in 100 μl of PBS, and 5 μl were removed for counting.

Sequence | Cell Count 7 d (WM 266-4 [1]; CPP mimicking peptides) | Apoptosis 7 d/% (WM 266-4 [2]; CPP mimicking peptides) | WST-1 7 d (SK-MEL-28 [3]; CPP mimicking peptides) | Apoptosis 7 d/% (B16) | WST-1 7 d (WM 266-4 [4]; CPP mimicking peptides) | Cell Count 7 d (SK-MEL-28 [5]; CPP mimicking peptides) | Cell Count 7 d (WM 266-4 [1]; modified peptides) | Apoptosis 7 d/% (WM 266-4 [2]; modified peptides) | WST-1 7 d (SK-MEL-28 [3]; modified peptides) | WST-1 7 d (WM 266-4 [4]; modified peptides) | Cell Count 7 d (SK-MEL-28 [5]; modified (inhibitor/MMP2, MMP9 site) peptides)
RPKKRKVRRRFNINDRIKELGTLIPKSNDPDMRWN [MITF-int1] | 30 | 21% | 0.7 | 16% | 0.8 | 39 |  |  |  |  | 
RPKKRKVRRRVKRPMNAFMVWAQAARRKLADQY [SOX10-int1] | 25 | 31% | 0.51 | 12% | 0.6 | 28 |  |  |  |  | 
TTGGSSPQGLEAKRPKKRKVRRRFNINDRIKELGTLIPKSNDPDMRWN [MITF-int1M] |  |  |  |  |  |  | 25 | 21% | 0.81 | 0.8 | 42
